Assay results taken from US20070135378A1, “Method for the direct synthesis of oligorhamnosides, composition comprising oligorhamnosides and use thereof as a medicament” (priority 2003, published 2007).

Legend:
dendritic cells [1] = format: cell-based
Method: Viability is determined from the mortality translated directly by the proportion of PI signal.

dendritic cells [2] = assay: Dendritic cell maturation (CD86 B7.2 expression, allergenic effect); format: cell-based, human; settings: control substances, concentration not given
Method: Three groups of cells are analyzed: 1) those which have not been exposed to oligorhamnosides or the selected activation signals, which will be used as negative controls, 2) those which were incubated for 24 hours with the activation signals, which will be used as positive controls, and 3) those which had been in contact with the oligorhamnosides for 24 hours. The culture medium used is a classical medium of type RPMI 1640 (Bioproducts), supplemented with 10% FCS, glutamine (2 mM) and the antibiotics penicillin and streptomycin (Bioproducts). The rinse liquid used is a PI buffer (Bioproducts). The cellular activator used is INFγ (SIGMA). The allergenic effect is reflected by the maturation of the dendritic cells and the expression of the CD86 B7.2 receptor. The more this receptor is expressed, the higher the proportion of mature cells and the more the rhamnosylated derivative studied has an allergenic effect.

[3] = tested on: LTB4 released by human neutrophilic leukocytes; assay: Assay of LTB4 released by human neutrophilic leukocytes; format: cell-based; settings: stimulation buffer, 0.1 μM
Method: (§1) Neutrophils are isolated from normal human blood and purified by an original method. They are then activated by a stimulation buffer which causes the release of two types of lipid molecules, arachidonic acid derivatives, arising from the cyclooxygenase and lipoxygenase pathways, namely the leukotriene LTB4 and the prostaglandin PGE2. This stimulation buffer contains in particular Ca^2+ and Mg^2+ ions. These assays are carried out by means of an ELISA-type commercial assay kit.
The results represent the means of the values assayed in two supernatants of cells stimulated during the same experiment.

keratinocytes = assay: Toxicity test: viability of keratinocytes; format: cell-based; settings: for % viability: vs control 100%
Excerpt: 1) Principles of Cellular Viability Measurement Techniques • MTT [3-(4,5-[…])-2,5-diphenyl tetrazolium bromide] reduction technique (sold by Sigma).
This technique corresponds to a […] test allowing quantification of living, metabolically active cells in a non-radioactive manner. MTT is a cationic molecule which is bound to the membranes of mitochondria in a potential-dependant fashion. On the level of the mitochondria, MTT will be reduced to formazan blue by mitochondrial dehydrogenase. The living cells are thus colored blue, in contrast with the dead cells which remain transparent. The measure of viability is then carried out by measurement of the optical density using an automatic reader.
This method of analysis, however, seems to be better adapted for adherent cells (keratinocyte-type) than for non-adherent cells (monocytes and dendritic cells). Another study was thus envisaged to conclude on the cytotoxicity of the oligorhamnosides with respect to the differentiated cells analyzed, namely flow cytometry in the presence of propidium iodide. • XTT tetrazolium salt reduction technique.
This is a technique allowing quantification of cellular proliferation and of the number of living (metabolically active) cells, without the incorporation of radioactive isotopes. XTT, yellow in color, is a cationic molecule which is bound to the membranes of mitochondria in a potential-dependant fashion, as does MTT.
On the level of the mitochondria, XTT will be reduced to formazan (orange) by mitochondrial tetrazolium reductase. […] Indeed, the reduction product is soluble within the cell. The method is thus faster. Living cells, in the absence and presence of a treatment become colored, in contrast with dead cells which remain colorless. The level of formazan product is detected with the spectrophotometer at a wavelength of 450 nm and is directly proportional to the number of metabolically active cells.
2) Toxicity Tests • Keratinocytes were isolated and placed in culture from human skin biopsies. Measurements of optical density (absorbance) of the 4 wells treated with the same product concentration were averaged. This average was compared with the average of the measurements obtained for the 4 control wells (Student's t-test—comparison of means—significant difference at 95% if p<0.05 and 99% if p<0.01).
The viabilities of the treated cells are expressed as a percentage compared to the control (untreated cells) of 100% (OD treated/OD control×100).

[4] = tested on: PGE2 released by human neutrophilic leukocytes; assay: Assay of PGE2 released by human neutrophilic leukocytes; format: cell-based
Method: as §1, with “kit. The results represent the means of the values assayed in two supernatants of cells stimulated during the same experiment.” for “kit.”

[5] = tested on: 6-ketoPGF1α released by NHK; assay: Assay of prostaglandin 6-ketoPGF1α after stimulation of keratinocytes (ELISA); format: cell-based, human; settings: for inhibition at 1 µM: Homo sapiens, Keratinocyte, 2 h
Method: Prostaglandin I2 (PGI2) is an unstable metabolite of the arachidonic acid degradation pathway. Like prostaglandin E2, it is a mediator of inflammation with vasodilatory properties. The instability of PGI2 lies in its rapid conversion (non-enzymatic hydration) to 6-keto prostaglandin F1α (6-ketoPG1α). It is thus this prostaglandin which is measured as a marker for PGI2 synthesis. PMA (phorbol-12-myristate-13-acetate) is an activator of protein kinase C. It is a non-physiological activator which mimics the effect of cytokines, including IL-1β on NHK, and encourages the cell to release a lipid molecule, the prostaglandin 6-ketoPGF1α. This prostaglandin is assayed by means of an ELISA. The two activators IL-1β and PMA are used. Indomethacin, an aspirin-type analgesic, is an anti-inflammatory drug (NSAID) which […]. It is used to inhibit the release of 6-ketoPGF1α. Two experiments were carried out. The first consists of pretreating the NHK with oligorhamnosides for 4 hours and then monitoring the stimulation for 2 hours in the presence of oligorhamnosides. A second experiment was carried out in which the pretreatment with oligorhamnosides was extended to 12 hours.

endothelial cells = assay: Cytotoxicity test (MTT) on endothelial cell lines; format: cell-based
Method: • Endothelial cells were placed in culture, immortalized and stabilized in their phenotype. The cell lines studied were appendix endothelial cells, brain microvascular endothelial cells, mesenteric lymphatic ganglia endothelial cells, peripheral lymphatic ganglia endothelial cells and skin microvascular endothelial cells.
The cytotoxicity test was carried out by means of a biochemical test on the transformation of a tetrazolium salt, MTT. […] Viability is indeed always greater than 85%, and this is true for all of the cells lines studied.

[6] = IL-1β stimulation 2 hours 1 ng/ml, 1 μM
[7] = PMA stimulation 2 hours 10 ng/ml, 1 μM

SMILES: C[S+](C)[O-] [DMSO control]
- Viability (propidium iodide, PI) (dendritic cells [1]): 1.27%
- CD86 B7.2 (Maturation) (dendritic cells [2]): 0.17%

SMILES: CC(Cc1ccc(O)c(O)c1)C(C)Cc1ccc(O)c(O)c1 (stereo not shown) [NDGA, nordihydroguaiaretic acid]
- % inhibition (LTB4 released) [3]: 73%
- LTB4 released, Stimulation [3]: 684 ± 185 pg/mL

SMILES: C[C@H](O)[C@H](O)[C@@H](O)[C@@H](O)C=O [Rhamnose, rhamnose]
- % viability (keratinocytes; 0.001 mg/ml): 95%
- % viability (keratinocytes; 0.01 mg/ml): 100%
- % viability (keratinocytes; 0.1 mg/ml): 98%
- % viability (keratinocytes; 1 mg/ml): 104%
- cytotoxicity (in words) (keratinocytes; even for the highest concentrations): does not exhibit cytotoxicity

SMILES: COc1ccc2c(c1)c(CC(=O)O)c(C)n2C(=O)c1ccc(Cl)cc1 [indomethacin]
- PGE2 released, Without stimulation ([4]; 1 μM): 4.5 ± 0 pg/mL
- inhibition at 1 µM ([4]; Homo sapiens, Leukocyte, stimulation buffer): 69%
- PGE2 released, Stimulation ([4]; stimulation buffer, 1 μM): 6.8 ± 1 pg/mL
- inhibition at 1 µM [5, 6]: 17%
- inhibition at 1 µM [5, 7]: 37%
- Mean 6-ketoPGF1α [5, 6]: 22.6 ± 3.4 pg/ml/μg proteins
- Mean 6-ketoPGF1α [5, 7]: 20.9 ± 4.9 pg/ml/μg proteins
- Mean 6-ketoPGF1α ([5]; Table 7 experiment, IL-1β stimulation 2 hours 1 ng/ml, concentration not given): 22.6 ± 3.4 pg/ml/μg proteins

SMILES: CCCCCOC1O[C@@H](C)[C@H](O)[C@@H](O)[C@H]1O (stereo partly shown) [pentyl-rhamnoside]
- Viability (endothelial cells; all of the cell lines studied): greater than 85%
- toxicity (in words) (endothelial cells; endothelial cell lines): no toxicity
